How the values were obtained:
[1] = target: T1, human α2β2γ1 complex, CBS3 mutant (V276G/L277G) (Homo sapiens, UniProt P54619+P54646, L277G/V276G); assay: AMPK activation and Thr172 phosphorylation by the LKB1 complex, CBS3 mutant; format: biochemical; settings: 300 µM nucleotide, 200 µM ATP
T1 construct: made in house; host or cells: Escherichia coli
Method: (§1) The relative roles of the three CBS sites in the other two mechanisms of activation of AMPK by AMP or ADP, i.e. promotion of Thr172 phosphorylation by LKB1, and protection against Thr172 dephosphorylation by protein phosphatases, have not been examined previously. As expected, incubation of the α2β2γ1 AMPK complex with a fixed, limiting amount of purified LKB1:STRADα:MO25α complex in the presence of 200 µM Mg.ATP^2− caused a large degree of activation (Figure 5A) and phosphorylation (Figure 5B) of AMPK (unphosphorylated α2β2γ1 complex), which were stimulated more than 2-fold by 300 µM AMP and 1.6-fold by 300 µM ADP.
Figure 5. Effects of AMP or ADP on AMPK activation and Thr172 phosphorylation by the LKB1:STRADα:MO25α complex. Unphosphorylated human α2β2γ1 complexes (WT, or with L129D/V130D, V276G/L277G or I312G mutations affecting CBS1, CBS3 or CBS4 respectively) were incubated with ATP and a fixed concentration of the LKB1:STRADα:MO25α complex in the presence or absence of AMP or ADP (both 300 µM), as described in the Materials and methods section. After the incubation aliquots were withdrawn for (A) AMPK assay or (B) Western blots. […] For (B), due to a limit on the number of lanes that could be run on one gel, single replicates from the triplicate assays were analysed. […]

[2] = target: T2, human α2β2γ1 complex, CBS4 mutant (I312G) (Homo sapiens, UniProt P54619+P54646, I312G); assay: AMPK inactivation and Thr172 dephosphorylation by PPM1A, CBS4 mutant; format: biochemical; settings: 300 µM nucleotide, absence of ATP
T2 construct: made in house; host or cells: Escherichia coli
Method: as §1
Figure 6. Effects of AMP or ADP on AMPK inactivation and Thr172 dephosphorylation by PP2Cα (PPM1A). Human α2β2γ1 complexes (WT, or with L129D/V130D, V276G/L277G or I312G mutations affecting CBS1, CBS3 or CBS4 respectively), all phosphorylated on Thr172, were incubated with a fixed concentration of PP2Cα (PPM1A) in the presence or absence of AMP or ADP (both 300 µM) as described in the Materials and methods section. After the incubation, aliquots were withdrawn for (A) AMPK assay or (B) Western blots. […] For (B), due to a limit on the number of lanes that could be run on one gel, single replicates from the triplicate assays were analysed. […]

T2 sequence (P54619 whole entry I312G): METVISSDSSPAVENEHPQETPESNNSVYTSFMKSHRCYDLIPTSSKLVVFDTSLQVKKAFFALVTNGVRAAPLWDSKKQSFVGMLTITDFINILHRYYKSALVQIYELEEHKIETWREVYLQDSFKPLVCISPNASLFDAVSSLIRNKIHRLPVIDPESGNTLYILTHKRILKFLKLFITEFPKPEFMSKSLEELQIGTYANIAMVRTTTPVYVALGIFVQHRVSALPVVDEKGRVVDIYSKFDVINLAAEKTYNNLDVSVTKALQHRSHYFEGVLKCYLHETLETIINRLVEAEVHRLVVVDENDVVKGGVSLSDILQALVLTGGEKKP
T2 sequence (P54646 whole entry): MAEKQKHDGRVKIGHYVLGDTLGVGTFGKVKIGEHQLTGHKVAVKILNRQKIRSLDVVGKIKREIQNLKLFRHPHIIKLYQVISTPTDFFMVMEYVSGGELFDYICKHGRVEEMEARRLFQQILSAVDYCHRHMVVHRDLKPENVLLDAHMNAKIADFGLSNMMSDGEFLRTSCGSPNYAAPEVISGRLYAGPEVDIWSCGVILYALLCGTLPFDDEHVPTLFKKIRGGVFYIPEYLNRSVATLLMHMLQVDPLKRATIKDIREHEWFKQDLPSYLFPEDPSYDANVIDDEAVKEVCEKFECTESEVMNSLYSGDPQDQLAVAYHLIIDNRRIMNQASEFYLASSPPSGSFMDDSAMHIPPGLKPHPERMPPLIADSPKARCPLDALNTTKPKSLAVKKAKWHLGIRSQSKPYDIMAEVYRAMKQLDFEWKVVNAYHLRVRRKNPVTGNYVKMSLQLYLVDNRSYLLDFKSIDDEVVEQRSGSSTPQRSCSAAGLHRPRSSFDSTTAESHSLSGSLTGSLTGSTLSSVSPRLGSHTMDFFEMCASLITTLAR
T2 sequence (O43741 whole entry partner): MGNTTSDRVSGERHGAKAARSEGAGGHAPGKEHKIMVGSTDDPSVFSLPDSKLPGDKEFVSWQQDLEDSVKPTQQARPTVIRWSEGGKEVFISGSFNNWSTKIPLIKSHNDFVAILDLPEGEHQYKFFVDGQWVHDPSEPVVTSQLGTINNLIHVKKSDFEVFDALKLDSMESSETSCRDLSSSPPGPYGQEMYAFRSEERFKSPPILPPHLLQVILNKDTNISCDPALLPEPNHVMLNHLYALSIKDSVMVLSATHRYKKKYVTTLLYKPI
T1 sequence (P54619 whole entry V276G/L277G): as the sequence (P54619 whole entry I312G) above, with V276G, L277G, G312I counted along it
T1 sequence (P54646 whole entry): as the sequence (P54646 whole entry) above
T1 sequence (O43741 whole entry partner): as the sequence (O43741 whole entry partner) above

| SMILES | effect of nucleotide on activation/phosphorylation by LKB1 in the mutant [1] | protective effect of nucleotide against PPM1A in the mutant [2] |
| --- | --- | --- |
| Nc1ncnc2c1ncn2[C@@H]1O[C@H](COP(=O)(O)OP(=O)(O)O)[C@@H](O)[C@H]1O [ADP] | abolished | almost completely abolished |
| Nc1ncnc2c1ncn2[C@@H]1O[C@H](COP(=O)(O)O)[C@@H](O)[C@H]1O [AMP] | abolished | almost completely abolished |

Source: publication PMC11088877, “AMP-activated protein kinase can be allosterically activated by ADP but AMP remains the key activating ligand” (Biochemical Journal, 2024)
